Test results taken from patent US12617767B2, “Crystalline forms of somatostatin modulators” (Crinetics Pharmaceuticals, Inc., priority 2019, dated 2026).
Marks after values point to notes of the source that are not given here. Each block holds one molecule with its values, some of them ahead of it.

How the values were obtained:
Type in all cases: physicochemical
[1] = Kinetic solubility studies in FaSSIF and FeSSIF; settings: FeSSIF
Procedure: The solubility of the dimesylate (Pattern B) and mono-HCl salts of Compound A was determined in FaSSIF (pH 6.5) at 37° C. after a slurry time of 5, 20 and 40 minutes. FaSSIF was warmed to 37° C. and added to a vial of ca. 9 mg of the salt to mark t=0. The mixture was kept stirring at 37° C. and a sample drawn with a syringe at t+5, 20 and 40 minutes. The samples were syringe filtered and the filtrate was diluted 2× to ensure no precipitation while waiting for HPLC analysis. The pH of the solution collected at 40 minutes was measured. The slurry was sampled again the following day and the supernatant from syringe filtration was analyzed directly by HPLC without dilution. The same experiment was run with FeSSIF (pH 5.0).

[2] = Stability of XRPD pattern on drying; settings: for XRPD pattern upon drying: dimesylate
Procedure: Short term slurries were carried out at two temperatures in 14 solvents. About 25 mg solid was added to a 2 mL vial followed by 0.70 mL of solvent. If all solids dissolved, more solid was added until a slurry was formed within reason. Slurries were stirred at constant temperature for four days (ambient temperature, 21-23° C.; or high temperature, 50° C.). After stirring for four days, solids were allowed to settle and were then recovered for XRPD analysis. XRPD analysis was performed on the wet cake, and if a new pattern was observed, the sample was dried in a vacuum oven at 50° C. for a minimum of 4 hours, then the dried sample was analyzed by XRPD.
Stability on Drying: A sample of Pattern B was prepared on an XRPD sample holder and analysed by XRPD to create a baseline. The disk was then left in a vacuum oven at 50° C. under static vacuum for 3 days. On the third day, the sample was removed from the oven and the “dry” pattern was recorded immediately.
(§1) Compound A⋅2MSA (Pattern A) was slurried in EtOH overnight at room temperature (ca. 16 hours). […] The bulk was dried in a vacuum oven at 50° C. under dynamic vacuum for 4.5 hours. The dried solids were removed from the oven and a “dry” XRPD analysis was collected.

[3] = Dynamic Vapor Sorption (DVS); settings: between 2% and 95% Relative Humidity (RH); dimesylate
Procedure: Dynamic Vapor Sorption (DVS) was done using a DVS Intrinsic 1. The sample is loaded into a sample pan and suspended from a microbalance. A typical sample mass for DVS measurement is 25 mg. Nitrogen gas bubbled through distilled water provides the desired relative humidity.
A typical measurement comprises the steps: • 1—Equilibrate at 50% RH • 2-50% to 2%. (50%, 40%, 30%, 20%, 10% and 2%) • a. Hold minimum of 5 mins and maximum of 240 minutes at each humidity. The pass criteria is less than 0.002% change • 3-2% to 95% (2%, 10%, 20%, 30%, 40%, 50%, 60%, 70%, 80%, 90%, 95%) • a. Hold minimum of 5 mins and maximum of 240 minutes at each humidity. The pass criteria is less than 0.002% change • 4-95% to 2% (95%, 80%, 70%, 60%, 50%, 40%, 30%, 20%, 10%, 2%) • a. Hold minimum of 5 mins and maximum of 240 minutes at each humidity. The pass criteria is less than 0.002% change • 5-2% to 50% (2%, 10%, 20%, 30%, 40%, 50%) • a. Hold minimum of 5 mins and maximum of 240 minutes at each humidity. The pass criteria is less than 0.002% change Dynamic Vapor Sorption Isotherm Plots of Solid Forms of Compound A⋅2MSA

[4] = Equilibrium solubility in simulated fluids and water at 37° C.; settings: for comments / Concentration: 24 hrs; for Concentration: mg of Compound A (free base); for Concentration / pH (24 hr): dimesylate
Procedure: The solubility Compound A⋅2MSA, Patterns A, B and I, was measured in water, fasted state simulated gastric fluid (FaSSGF) and fasted state simulated intestinal fluid (FaSSIF) at 37° C. by slurrying in the respective media for 24 hours. 1.5 mL of the fluid was stirred at 37° C. About 5 mg of the specified solid was added to FaSSIF and a thin slurry was immediately formed. As a test, approximately 80 and 60 mg of Pattern A was added to 1.5 mL of water and FaSSGF, respectively without formation of a slurry. Therefore, about 10 mg of the desired Pattern was added to water and FaSSGF solutions. The samples were allowed to stir at 37° C. for 24 hrs. The stir bars were removed from the FaSSIF vials and the solids allowed to settle for 0.5 hours at 37° C. The supernatant/solutions were syringe filtered and recovered for analysis by HPLC as well as for pH measurement.

[5] = Storage at ambient conditions (XRPD)
Procedure: Characterization after storage under ambient conditions: Pattern B was left at ambient conditions (21-22° C., 10-40% RH) for a week then characterized by)(RFD, TGA/DSC, and water content measured by Karl-Fischer titration. […] The water content was confirmed by KF titration which yielded a value of 4.20 wt. %.
Compound A⋅2MSA (Pattern A, 0.2622 g) was added to a 20 mL vial with a stir bar. Fifteen volumes (3.93 mL) of EtOH was added and the slurry was stirred overnight (˜20 hours). The slurry was sampled to confirm the correct pattern was generated, then the solids were collected by filtration. The resultant yellow solid was dried in a vacuum oven at 50° C. under dynamic vacuum for 2 hours, then under static vacuum overnight (˜16 hours) to yield 0.2015 g (77% yield). The in-situ sample drawn was dried for 3 hours then the solid was used for characterization by solution ^1H-NMR spectroscopy and simultaneous TGA/DSC. The bulk was dried overnight and used for stand-alone DSC, and thermal treatment.
as §1
Compound A⋅2MSA (Pattern A, 0.2659 g) was added to a 20 mL vial with a stir bar. Twenty-five volumes (6.65 mL) of ACN was added and the slurry was stirred overnight (˜20 hours). The slurry was sampled to confirm the correct pattern was generated, then the solids were collected by filtration. The resultant yellow solid was dried in a vacuum oven at 50° C. under dynamic vacuum for 2 hours, then under static vacuum overnight (˜16 hours) to yield 0.2255 g (85% yield). The sample drawn was dried for 3 hours then the solid was used for characterization by solution ^1H-NMR spectroscopy and simultaneous TGA/DSC. The bulk was dried overnight and used for stand-alone DSC.

[6] = solids from short term slurries, vacuum oven at 50° C., minimum of 4 hours
[7] = solids from amorphous slurry or antisolvent experiments

Compound: CS(=O)(=O)O.CS(=O)(=O)O.N#Cc1cccc(-c2ccc3ncc(-c4cc(F)cc(F)c4)c(N4CCC(N)CC4)c3c2)c1O [Compound A⋅2MSA, 3-(4-(4-aminopiperidin-1-yl)-3-(3,5-difluorophenyl)quinolin-6-yl)-2-hydroxybenzonitrile dimesylate]
- solubility relative to the HCl salt [1]: 12 ×

Compound: CS(=O)(=O)O.CS(=O)(=O)O.N#Cc1cccc(-c2ccc3ncc(-c4cc(F)cc(F)c4)c(N4CCC(N)CC4)c3c2)c1O [Pattern A, 3-(4-(4-aminopiperidin-1-yl)-3-(3,5-difluorophenyl)quinolin-6-yl)-2-hydroxybenzonitrile dimesylate]
- XRPD pattern upon drying [2, 6]: stable upon drying
- reversible water uptake (DVS) [3]: 9.8 % w/w
- amount added to 1.5 mL without formation of a slurry ([4]; FaSSGF): ~60 mg
- amount added to 1.5 mL without formation of a slurry ([4]; water): approximately 80 mg

Compound: CS(=O)(=O)O.CS(=O)(=O)O.N#Cc1cccc(-c2ccc3ncc(-c4cc(F)cc(F)c4)c(N4CCC(N)CC4)c3c2)c1O [Pattern C, 3-(4-(4-aminopiperidin-1-yl)-3-(3,5-difluorophenyl)quinolin-6-yl)-2-hydroxybenzonitrile dimesylate]
- XRPD pattern upon drying [2, 6]: stable upon drying
- XRPD pattern after drying ([2]; vacuum oven at 50° C. under dynamic vacuum for 4.5 hours): a combination of Patterns C and I
- XRPD pattern of wet sample left at ambient conditions ([5]; 24 hours): did not change
- XRPD pattern after storage at ambient conditions ([5]; bulk, 6 days at ambient conditions, dimesylate): a pattern resembling Pattern I
- comments ([4]; FaSSGF (pH 1.70)): dissolved
- Concentration ([4]; FaSSGF (pH 1.70), above calibration range): >7.75^b mg/mL
- pH (24 hr) ([4]; FaSSGF (pH 1.70)): 1.84
- comments ([4]; FaSSIF (pH 6.48)): disproportionated
- Concentration ([4]; FaSSIF (pH 6.48)): 0.010 mg/mL
- pH (24 hr) ([4]; FaSSIF (pH 6.48)): 6.06
- comments ([4]; water): dissolved
- Concentration ([4]; water, above calibration range): >6.59^b mg/mL
- pH (24 hr) ([4]; water): 3.09

Compound: CS(=O)(=O)O.CS(=O)(=O)O.N#Cc1cccc(-c2ccc3ncc(-c4cc(F)cc(F)c4)c(N4CCC(N)CC4)c3c2)c1O [Pattern D, 3-(4-(4-aminopiperidin-1-yl)-3-(3,5-difluorophenyl)quinolin-6-yl)-2-hydroxybenzonitrile dimesylate]
- XRPD pattern upon drying [2, 6]: converted to Pattern A

Compound: CS(=O)(=O)O.CS(=O)(=O)O.N#Cc1cccc(-c2ccc3ncc(-c4cc(F)cc(F)c4)c(N4CCC(N)CC4)c3c2)c1O [Pattern E, 3-(4-(4-aminopiperidin-1-yl)-3-(3,5-difluorophenyl)quinolin-6-yl)-2-hydroxybenzonitrile dimesylate]
- XRPD pattern upon drying [2, 6]: converted to Pattern A

Compound: CS(=O)(=O)O.CS(=O)(=O)O.N#Cc1cccc(-c2ccc3ncc(-c4cc(F)cc(F)c4)c(N4CCC(N)CC4)c3c2)c1O [Pattern F, 3-(4-(4-aminopiperidin-1-yl)-3-(3,5-difluorophenyl)quinolin-6-yl)-2-hydroxybenzonitrile dimesylate]
- XRPD pattern upon drying [2, 6]: converted to Pattern I

Compound: CS(=O)(=O)O.CS(=O)(=O)O.N#Cc1cccc(-c2ccc3ncc(-c4cc(F)cc(F)c4)c(N4CCC(N)CC4)c3c2)c1O [Pattern G, 3-(4-(4-aminopiperidin-1-yl)-3-(3,5-difluorophenyl)quinolin-6-yl)-2-hydroxybenzonitrile dimesylate]
- XRPD pattern upon drying [2, 6]: converted to Pattern I

Compound: CS(=O)(=O)O.CS(=O)(=O)O.N#Cc1cccc(-c2ccc3ncc(-c4cc(F)cc(F)c4)c(N4CCC(N)CC4)c3c2)c1O [Pattern H, 3-(4-(4-aminopiperidin-1-yl)-3-(3,5-difluorophenyl)quinolin-6-yl)-2-hydroxybenzonitrile dimesylate]
- XRPD pattern upon drying [2, 6]: converted to Pattern I

Next, values leading:

- XRPD pattern upon drying [2, 7]: lost crystallinity upon drying
Compound: CS(=O)(=O)O.CS(=O)(=O)O.N#Cc1cccc(-c2ccc3ncc(-c4cc(F)cc(F)c4)c(N4CCC(N)CC4)c3c2)c1O [Pattern M, 3-(4-(4-aminopiperidin-1-yl)-3-(3,5-difluorophenyl)quinolin-6-yl)-2-hydroxybenzonitrile dimesylate]

- XRPD pattern upon drying [2, 7]: stable upon drying
Compound: CS(=O)(=O)O.CS(=O)(=O)O.N#Cc1cccc(-c2ccc3ncc(-c4cc(F)cc(F)c4)c(N4CCC(N)CC4)c3c2)c1O [Pattern N, 3-(4-(4-aminopiperidin-1-yl)-3-(3,5-difluorophenyl)quinolin-6-yl)-2-hydroxybenzonitrile dimesylate]

- XRPD pattern upon drying [2, 7]: stable upon drying
Compound: CS(=O)(=O)O.CS(=O)(=O)O.N#Cc1cccc(-c2ccc3ncc(-c4cc(F)cc(F)c4)c(N4CCC(N)CC4)c3c2)c1O [Pattern O, 3-(4-(4-aminopiperidin-1-yl)-3-(3,5-difluorophenyl)quinolin-6-yl)-2-hydroxybenzonitrile dimesylate]
